Values of other authors in patent US20100143471A1, “NOVEL REDUCED DOSE PHARMACEUTICAL COMPOSITIONS OF FE[…] PSEUDOEPHEDRINE” (LUPIN LIMITED, priority 2007, published 2010).
Where a name gives a salt, the structure may show the parent alone.

System: seasonal allergic rhinitis symptoms
Details: children aged 6-11 years

| Compound | reduction of seasonal allergic rhinitis symptoms (30 mg bid) | safety and sedation (doses of up to 60 mg bid) |
| --- | --- | --- |
| CC(C)(C(=O)O)c1ccc(C(O)CCCN2CCC(C(O)(c3ccccc3)c3ccccc3)CC2)cc1 (centres unmarked) [fexofenadine HCl] | effectively reduces all seasonal allergic rhinitis symptoms | – |
| CC(C)(C(=O)O)c1ccc(C(O)CCCN2CCC(C(O)(c3ccccc3)c3ccccc3)CC2)cc1 (centres unmarked) [fexofenadine] | – | safe and nonsedating |
